Assay results from PubChem BioAssay AID248 (DTP/NCI, 2004).
Values joined by “and” are separate entries in the source; they are usually repeats but may differ in a detail not shown here. Identical values can stand only once. Toxic doses and inconclusive results are not listed. Cut-off read from the data, not from the text of the source: active = T/C of 150% or more; inactive = T/C below 125%.

Tested on: L1210 leukemia ip in BDF1 mice, survival T/C
Assay: NCI In Vivo Anticancer Drug Screen. Data for tumor model L1210 Leukemia (intraperitoneal) in B6D2F1 (BDF1) mice
Conditions: endpoint: mean survival time, higher = longer survival
Procedure, shortened: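 Each compound was tested against a transplantable tumor grown in mice. The endpoint was survival, with treated animals benchmarked against vehicle controls as a simple ratio.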

[1] = dose: 100.0 mg/kg/injection, schedule: Q04DX003 (ip), vehicle: saline with Tween-80
[2] = dose: 200.0 mg/kg/injection, schedule: Q04DX003 (ip), vehicle: saline with Tween-80
[3] = dose: 400.0 mg/kg/injection, schedule: Q04DX003 (ip), vehicle: saline with Tween-80
[4] = dose: 100.0 mg/kg/injection, schedule: Q04DX003 (ip), vehicle: saline
[5] = dose: 200.0 mg/kg/injection, schedule: Q04DX003 (ip), vehicle: saline
[6] = dose: 100.0 mg/kg/injection, schedule: Q01DX001 (ip), vehicle: saline
[7] = dose: 200.0 mg/kg/injection, schedule: Q01DX001 (ip), vehicle: saline
[8] = dose: 50.0 mg/kg/injection, schedule: Q01DX001 (ip), vehicle: saline
[9] = dose: 100.0 mg/kg/injection, schedule: Q04DX002 (ip), vehicle: Klucel (hydroxypropylcellulose) (HPC)
[10] = dose: 200.0 mg/kg/injection, schedule: Q04DX002 (ip), vehicle: Klucel (hydroxypropylcellulose) (HPC)
[11] = dose: 400.0 mg/kg/injection, schedule: Q01DX001 (ip), vehicle: saline
[12] = dose: 400.0 mg/kg/injection, schedule: Q04DX002 (ip), vehicle: Klucel (hydroxypropylcellulose) (HPC)
[13] = dose: 100.0 mg/kg/injection, schedule: Q04DX003 (ip), vehicle: Klucel (hydroxypropylcellulose) (HPC)
[14] = dose: 200.0 mg/kg/injection, schedule: Q04DX003 (ip), vehicle: Klucel (hydroxypropylcellulose) (HPC)
[15] = dose: 400.0 mg/kg/injection, schedule: Q04DX003 (ip), vehicle: Klucel (hydroxypropylcellulose) (HPC)
[16] = dose: 100.0 mg/kg/injection, schedule: Q01DX001 (ip), vehicle: other
[17] = dose: 200.0 mg/kg/injection, schedule: Q01DX001 (ip), vehicle: other
[18] = dose: 100.0 mg/kg/injection, schedule: Q01DX001 (ip), vehicle: carboxymethylcellulose (CMC)
[19] = dose: 100.0 mg/kg/injection, schedule: Q04DX003 (ip), vehicle: carboxymethylcellulose (CMC)
[20] = dose: 200.0 mg/kg/injection, schedule: Q01DX001 (ip), vehicle: carboxymethylcellulose (CMC)
[21] = dose: 200.0 mg/kg/injection, schedule: Q04DX003 (ip), vehicle: carboxymethylcellulose (CMC)

Measured: T/C

CC(=O)NC1CCc2ccccc2-c2cccc(=O)cc21 (centres undefined)
inactive: dose: 0.1 mg/kg/injection, schedule: Q01DX009 (ip), vehicle: Klucel (hydroxypropylcellulose) (HPC) 108 % of control | dose: 0.2 mg/kg/injection, schedule: Q01DX009 (ip), vehicle: Klucel (hydroxypropylcellulose) (HPC) 113 % of control and 124 % of control | dose: 0.39 mg/kg/injection, schedule: Q01DX009 (ip), vehicle: Klucel (hydroxypropylcellulose) (HPC) 118 % of control | dose: 0.78 mg/kg/injection, schedule: Q01DX009 (ip), vehicle: Klucel (hydroxypropylcellulose) (HPC) 86 % of control | dose: 0.78 mg/kg/injection, schedule: Q01DX009 (ip), vehicle: saline 116 % of control

COC(=O)c1ccc(C(=O)O)cc1
inactive: [1] 100 % of control | [2] 102 % of control | [3] 91 % of control

CC1C(C)(C)P(=O)(OCCOP2(=O)C(C)(C)C(C)C2(C)C)C1(C)C (centres undefined)
inactive: [4] 100 % of control | [5] 94 % of control

C1C2OC2CC2OC12 (centres undefined)
inactive: dose: 100.0 mg/kg/injection, schedule: Q01DX009 (ip), vehicle: saline with Tween-80 95 % of control | dose: 200.0 mg/kg/injection, schedule: Q01DX009 (ip), vehicle: saline with Tween-80 96 % of control | dose: 400.0 mg/kg/injection, schedule: Q01DX009 (ip), vehicle: saline with Tween-80 95 % of control

N#CCc1ccc(Cl)cc1Cl
inactive: dose: 12.5 mg/kg/injection, schedule: Q04DX002 (ip), vehicle: Klucel (hydroxypropylcellulose) (HPC) 97 % of control | dose: 25.0 mg/kg/injection, schedule: Q04DX002 (ip), vehicle: Klucel (hydroxypropylcellulose) (HPC) 91 % of control | dose: 50.0 mg/kg/injection, schedule: Q04DX002 (ip), vehicle: Klucel (hydroxypropylcellulose) (HPC) 87 % of control

CN(CCN(C)S(=O)(=O)c1ccccc1)S(=O)(=O)c1ccccc1
inactive: dose: 75.0 mg/kg/injection, schedule: Q01DX009 (ip), vehicle: Klucel (hydroxypropylcellulose) (HPC) 94 % of control | dose: 150.0 mg/kg/injection, schedule: Q01DX009 (ip), vehicle: Klucel (hydroxypropylcellulose) (HPC) 107 % of control | dose: 300.0 mg/kg/injection, schedule: Q01DX009 (ip), vehicle: Klucel (hydroxypropylcellulose) (HPC) 95 % of control

Nc1ccc2c(ccc3cccc[n+]32)c1
inactive: [6] 105 % of control | [7] 108 % of control

Cn1ncc(C#N)c1N
inactive: [8] 98 % of control | [6] 110 % of control | [9] 98 % of control | [7] 95 % of control | [10] 91 % of control | [11] 95 % of control | [12] 100 % of control

O=C(COc1ccccc1)Oc1c(Cl)cc(Cl)cc1Cl
inactive: [13] 98 % of control | [14] 100 % of control | [15] 100 % of control

CCc1cc2c(cc1C(=O)CCN1CCCC1)C(C)(C)CCC2(C)C
inactive: dose: 25.0 mg/kg/injection, schedule: Q04DX002 (ip), vehicle: saline with Tween-80 90 % of control | dose: 50.0 mg/kg/injection, schedule: Q04DX002 (ip), vehicle: saline with Tween-80 90 % of control | dose: 100.0 mg/kg/injection, schedule: Q04DX002 (ip), vehicle: saline with Tween-80 90 % of control

NC(=O)/C=C/c1ccc([N+](=O)[O-])cc1
inactive: [13] 97 % of control | [14] 100 % of control | [15] 97 % of control

CC(Cl)(Cl)CC(O)(C(F)(F)F)C(F)(F)F
inactive: dose: 50.0 mg/kg/injection, schedule: Q04DX003 (ip), vehicle: saline with Tween-80 95 % of control | [1] 105 % of control | [2] 91 % of control

CCCN1CSC(=S)N(Cc2ccccc2)C1
inactive: [1] 95 % of control | [2] 93 % of control | [3] 90 % of control

CCNC(C)(C)C(Cl)c1cccs1 (centres undefined)
inactive: dose: 100.0 mg/kg/injection, schedule: Q01DX009 (ip), vehicle: saline 101 % of control | [4] 96 % of control | dose: 200.0 mg/kg/injection, schedule: Q01DX009 (ip), vehicle: saline 100 % of control | [5] 93 % of control

O=C(O)C1=C(C(=O)O)C2C=CC1N2Cc1ccccc1
inactive: [16] 96 % of control | [17] 102 % of control

CCCOC(=O)c1ccc(OC(=O)NC)cc1
inactive: [18] 92 % of control | dose: 100.0 mg/kg/injection, schedule: Q01DX009 (ip), vehicle: carboxymethylcellulose (CMC) 101 % of control and 106 % of control | dose: 100.0 mg/kg/injection, schedule: Q04DX002 (ip), vehicle: carboxymethylcellulose (CMC) 102 % of control and 112 % of control | [19] 102 % of control | [20] 102 % of control | dose: 200.0 mg/kg/injection, schedule: Q01DX009 (ip), vehicle: carboxymethylcellulose (CMC) 109 % of control and 88 % of control | dose: 200.0 mg/kg/injection, schedule: Q04DX002 (ip), vehicle: carboxymethylcellulose (CMC) 97 % of control and 102 % of control | [21] 91 % of control | dose: 400.0 mg/kg/injection, schedule: Q01DX001 (ip), vehicle: carboxymethylcellulose (CMC) 96 % of control | dose: 400.0 mg/kg/injection, schedule: Q04DX002 (ip), vehicle: carboxymethylcellulose (CMC) 94 % of control and 102 % of control

Cc1noc2c1CCCC2
inactive: [19] 103 % of control | [21] 106 % of control

C=C1C(=O)O[C@@H]2[C@H]3O[C@]3(C)CCC=C(C)CC[C@@H]12
inactive: dose: 6.25 mg/kg/injection, schedule: Q01DX009 (ip), vehicle: alcohol 97 % of control | dose: 12.5 mg/kg/injection, schedule: Q01DX009 (ip), vehicle: alcohol 103 % of control | dose: 25.0 mg/kg/injection, schedule: Q01DX009 (ip), vehicle: alcohol 95 % of control

CN(Cc1ccccc1)Cc1cc(CO)ccc1O
inactive: [18] 103 % of control | [20] 105 % of control

CCCCC(=O)N/N=C/c1ccc(OCC)c(OCC)c1
inactive: [6] 102 % of control | [7] 98 % of control | [11] 102 % of control

Cc1ccc(Cl)c(NC(=O)c2ccccc2Cl)c1
inactive: [9] 97 % of control | [10] 97 % of control | [12] 104 % of control

Clc1ccc2c(c1)C(Nc1cc3c4ccccc4ccc3c3ccccc13)c1cc(Cl)cc(Cl)c1-2 (centres undefined)
inactive: dose: 100.0 mg/kg/injection, schedule: Q01DX009 (ip), vehicle: Klucel (hydroxypropylcellulose) (HPC) 88 % of control | [13] 90 % of control | dose: 200.0 mg/kg/injection, schedule: Q01DX009 (ip), vehicle: Klucel (hydroxypropylcellulose) (HPC) 88 % of control | [14] 95 % of control | dose: 400.0 mg/kg/injection, schedule: Q01DX009 (ip), vehicle: Klucel (hydroxypropylcellulose) (HPC) 86 % of control | [15] 93 % of control

CC(C)O/N=C(/N)N=C(N)N
inactive: [16] 98 % of control | [17] 106 % of control

O=[N+]([O-])c1ccc(CC2=NCCc3cc4c(cc32)OCO4)cc1
inactive: [6] 98 % of control | [7] 96 % of control | [11] 105 % of control

O=C(O)C(c1ccccc1)(c1ccccc1)c1ccccc1
inactive: [8] 101 % of control | [6] 106 % of control | [7] 103 % of control

Oc1ccccc1C=Nc1cccc(Cl)c1Cl
inactive: [13] 91 % of control | [14] 98 % of control | [15] 100 % of control
